Data from patent publication US20240390306A1, “Monohydrate Salt of Denatonium Acetate” (priority 2021, published 2024).
Entries after “also recorded” stand apart in the source; their conditions may differ. Read-outs that look alike come from different tables or passages of the source.

How the values were obtained:
[1] = format: physicochemical; conditions: for form by XRPD after storage: closed vial, 6 weeks
Excerpt: It was then removed from the instrument and a portion immediately analyzed by XRPD. […]
A summary of the characterization data for the samples of Pattern 5 can be found in Table 9.

[2] = Polymorph screen: solvent addition to ca. 10 mg DAM, initial observation (solubility); format: physicochemical
Experimental: The resultant samples were refrigerated (solutions) or shaken at room temperature (suspensions) for several days. The samples that had initially formed solutions were examined for signs of solid formation after refrigeration. If solid material had formed, it was analyzed by XRPD. If no solid had formed the vials were uncapped and the solutions evaporated, and solid residues analyzed by XRPD. For samples which had initially formed suspensions-if solid was still present it was analyzed by XRPD. The supernatant from the suspension was filtered and then the filtrates were then treated as the solutions above. In some experiments further solid was obtained from evaporation of the filtrates and was analyzed by XRPD where the quantity of material allowed.

[3] = Storage under stress conditions (temperature / relative humidity); format: physicochemical
Excerpt: It also lost mass when taken to relative humidity levels of less than 10%.
It also loses mass when taken to relative humidity levels of less than 10%.
It was then removed from the instrument and a portion immediately analyzed by XRPD.

[4] = Gravimetric Vapor Sorption (GVS) experiments; format: physicochemical
Experimental: Several Gravimetric Vapor Sorption (GVS) experiments were carried out to investigate the behavior of DAM over a range of different relative humidity levels. […] This experiment used a similar method to GVS 1 without the steps involving 90% RH where the large mass changes were observed and equilibrium was not reached. […] Most of the mass change (1.3-1.4% increase) occurred between 0-10% RH. […] It also loses mass when taken to relative humidity levels of less than 10%.

[5] = Particle size distribution; format: physicochemical
Excerpt: The sample was highly crystalline.

[6] = Polymorph screen: solvent addition to ca. 10 mg DAM, initial observation (solubility); format: physicochemical; remark: listed apart in the source

Question: Which form stability [1] does the source give for `CC(=O)[O-].CC[N+](CC)(CC(=O)Nc1c(C)cccc1C)Cc1ccccc1` [Pattern 5] here?
Answer: metastable

Question: What about the form after standing ([1]; ambient laboratory conditions, within a few hours) of the same compound?
Answer: converts to Pattern 1

Question: And the “form by XRPD after storage” value [1]?
Answer: converted to Pattern 1

Question: What about the “form by XRPD after storage” value ([1]; listed as DAM Pattern 5) of the same compound?
Answer: Conversion to Pattern 1 by XRPD

Question: And the “form by XRPD after standing” value ([1]; on XRPD disc at room temperature overnight)?
Answer: convert to Pattern 1; also recorded: reverted to Pattern 1

Question: What about the “form by XRPD after standing” value ([1]; on XRPD disc at room temperature overnight, listed as DAM Pattern 5) of the same compound?
Answer: Conversion to Pattern 1 by XRPD

Question: And the “form by XRPD after standing” value ([1]; on XRPD disc, ambient laboratory conditions, 4 hours, listed as DAM Pattern 5)?
Answer: Conversion to Pattern 1 by XRPD

Question: What does the source list for `CC(=O)[O-].CC[N+](CC)(CC(=O)Nc1c(C)cccc1C)Cc1ccccc1` [DAM, denatonium acetate monohydrate]?
Answer: Initial observation ([2]; ca. 10 mg in 1-Pentanol, 50 μL): Soluble; Initial observation ([2]; ca. 10 mg in 2-Butanol, 50 μL): Soluble; Initial observation ([2]; ca. 10 mg in 2-Ethoxyethanol, 25 μL): Soluble; Initial observation ([2]; ca. 10 mg in 2-Methoxyethanol, 25 μL): Soluble; Initial observation ([2]; ca. 10 mg in Acetic acid, 25 μL): Soluble; Initial observation ([2]; ca. 10 mg in Acetone, 1000 μL): Soluble; Initial observation ([2]; ca. 10 mg in Diisopropyl ether, 1000 μL): Suspension; Initial observation ([2]; ca. 10 mg in Dimethylsulfoxide, 100 μL): Solution; Initial observation ([2]; ca. 10 mg in Ethyl acetate, 1000 μL): Suspension; Initial observation ([2]; ca. 10 mg in Ethyl formate, 50 μL): Soluble; Initial observation ([2]; ca. 10 mg in MeCN + 5% water, 50 μL): Solution; Initial observation ([2]; ca. 10 mg in MeOH + 5% water, 25 μL): Solution; Initial observation ([2]; ca. 10 mg in Methylethyl ketone, 800 μL): Soluble; Initial observation ([2]; ca. 10 mg in Tetrahydrofuran, 1000 μL): Suspension; form by XRPD after storage ([3]; 0% RH (open vial in GVS instrument, 2 days), acetate monohydrate): converted to Pattern 5; also recorded: consistent with Pattern 5; also recorded: change in form to Pattern 5; form by XRPD after storage ([3]; 25° C., 96% RH, 7 days): Amorphous; form by XRPD after storage ([3]; 40° C., 75% RH, 7 days): Shows no change in form by XRPD after 7 days; sample appearance after GVS ([4]; post GVS 1 (40-90-0-90-0-40)): sorption cycle. Sample had formed a solid mass with powdery; sample appearance after GVS ([4]; post GVS 2 (40-80-0-80-0-40), acetate monohydrate): remained as a free-flowing powder; also recorded: Sample remained free flowing solid; sample appearance after GVS ([4]; post GVS 3 (40-0-80-0-80-0-40), acetate monohydrate): remained as a free-flowing powder; also recorded: Sample remained free flowing solid; PSD D10 [5]: 1.62 μm; PSD D50 [5]: 23.09 μm; Initial observation ([6]; ca. 10 mg in 1,2-Dimethoxyethane, 1000 μL): Suspension; Initial observation ([6]; ca. 10 mg in 1,4-Dioxane, 1000 μL): Suspension; Initial observation ([6]; ca. 10 mg in 1-Butanol, 50 μL): Soluble; Initial observation ([6]; ca. 10 mg in 1-Propanol, 25 μL): Soluble; Initial observation ([6]; ca. 10 mg in 2-Methyl-1-Propanol, 50 μL): Soluble; Initial observation ([6]; ca. 10 mg in 2-Pentanone, 1000 μL): Suspension; Initial observation ([6]; ca. 10 mg in 2-Propanol, 50 μL): Soluble; Initial observation ([6]; ca. 10 mg in 3-Methyl-1-Butanol, 50 μL): Soluble; Initial observation ([6]; ca. 10 mg in 4-Methyl-2-pentanone, 1000 μL): Suspension; Initial observation ([6]; ca. 10 mg in Acetone + 5% water, 50 μL): Solution; Initial observation ([6]; ca. 10 mg in Acetonitrile, 200 μL): Soluble; Initial observation ([6]; ca. 10 mg in Anisole, 750 μL): Suspension; Initial observation ([6]; ca. 10 mg in Benzonitrile, 500 μL): Nearly all; Initial observation ([6]; ca. 10 mg in Benzyl alcohol, 25 μL): Solution; Initial observation ([6]; ca. 10 mg in Butyl acetate, 1000 μL): Suspension; Initial observation ([6]; ca. 10 mg in Chloroform, 50 μL): Soluble; Initial observation ([6]; ca. 10 mg in Cumene, 1000 μL): Suspension; Initial observation ([6]; ca. 10 mg in Diethyl ether, 1000 μL): Suspension; Initial observation ([6]; ca. 10 mg in EtOH + 5% water, 25 μL): Solution; Initial observation ([6]; ca. 10 mg in Ethanol, 25 μL): Soluble; Initial observation ([6]; ca. 10 mg in Formic acid, 25 μL): Soluble; Initial observation ([6]; ca. 10 mg in IPA + 5% water, 50 μL): Solution; Initial observation ([6]; ca. 10 mg in Isobutyl acetate, 1000 μL): Suspension; Initial observation ([6]; ca. 10 mg in Isopropyl acetate, 1000 μL): Suspension; Initial observation ([6]; ca. 10 mg in Methanol, 25 μL): Soluble; Initial observation ([6]; ca. 10 mg in Methyl acetate, 1000 μL): Suspension; Initial observation ([6]; ca. 10 mg in Methylbutyl ketone, 1000 μL): Suspension; Initial observation ([6]; ca. 10 mg in Pentane, 1000 μL): Suspension; Initial observation ([6]; ca. 10 mg in Propyl acetate, 1000 μL): Suspension; Initial observation ([6]; ca. 10 mg in Toluene, 1000 μL): Suspension; Initial observation ([6]; ca. 10 mg in Water, 20 μL): Soluble; Initial observation ([6]; ca. 10 mg in heptane, 1000 μL): Suspension; Initial observation ([6]; ca. 10 mg in t-Butanol, 100 μL): Soluble; Initial observation ([6]; ca. 10 mg in t-Butylmethyl ether, 1000 μL): Suspension
